In patent publication US20260083725A1, “SIGMARI LIGAND FOR THE TREATMENT OF PANCREATIC CANCER” (INSTITUT NATIONAL DE LA SANTÉ ET DE LA RECHERCHE MÉDICALE, priority 2022, published 2026):

What was measured:
SK2 channel = assay: Whole cell patch clamp recording of SK2 current in pancreatic cancer cells; type: cell-based, human; conditions: for CAF-CM-induced SK2 current: PANC-1 cells incubated with CAF-CM plus inhibitor or antibody
Procedure: Electrophysiological recordings in HEK293-T, PANC-1 and MiaPaCa-2 cells were performed in the whole cell configuration of the patch clamp technique at room temperature. Cells were bathed in a solution containing: 5 mM KCl, 145 mM NaCl, 1 mM MgCl2, 2 mM CaCl2, and 10 mM Hepes (pH adjusted to 7.4 with HCl, 300 mosm/L). Soft glass patch electrodes (Brand, Wertheim, Germany) were made on a horizontal pipette puller (P-97, Sutter Instrument Co., Novato, CA) to achieve a final resistance ranging from 3 to 5 MΩ. The internal solution was: 145 mM KCl, 1 mM MgCl2, 0.87 mM CaCl2, 1 mM EGTA, 10 mM Hepes, 1 mM ATP (pH adjusted to 7.2 with KOH, 308 mosm/L, pCa 6). Recordings were performed at room temperature in the voltage clamp mode using an PC-controlled EPC 9 patch-clamp amplifier (HEKA, Lambrecht/Pfalz, Germany). Currents were acquired and analyzed with Pulse and Pulsefit software (HEKA). Signal were filtered at 10 kHz and digitalized at 20 kHz. Currents were elicited by voltage ramps protocols (from −120 to +60 mV). Current density was measured at 0 mV. For the electrophysiological study of the SK2 mutations, HEK293-T were transfected with the different constructions and the HA-myr-AKT using calcium phosphate and recorded 24 h after transfection.

SK2/AKT interaction = assay: In situ proximity ligation assay of SK2/AKT interaction in PANC-1 cells; type: cell-based, human; conditions: PANC-1 Sh RD cells, overnight CAF-CM + 1(S) ligand 1 μM; FIG. 1B
Procedure: The DuoLink in situ Proximity Ligation Assay (PLA) (Olink Bioscience, Uppsala, Sweden) was used to detect the interaction between SK2 and different candidates' partner (C-myc Sig-1R, EGFR, AKT, β1 integrin). PANC-1 cells expressing a stable Sh R D, Sh Sig-1R, or Sh SK2 were seeded on poly-Lysine (40 μg/mL) coated microscope slides. Cells were fixed with PFA 4% and permeabilized with triton X100 (0.05%). Cells were immunolabeled with primary antibodies: anti SK2 (1:100) and anti C-myc, (1:100) or anti EGFR (1:100), or anti AKT (1:100), or anti β1 integrin (1:100) for 1 h at 37° C. The secondary antibodies with attached PLA probes were supplied in the Duolink kit. Cellular PLA images were captured using an inverted Zeiss Axio Observer Z1 microscope (Zeiss, Jena, Germany). 6 to 10 fields have been imaged and quantified per conditions.

Panc-1 cells = assay: Proliferation and viability assays on Panc-1 cells; type: cell-based; conditions: control Panc-1 cells or cells silenced for Sig1R or SK2
KICpdx1 mice = assay: Endogenous PDAC mice model (KICpdx1 mice) treated with 1(S) ligand; type: in vivo, mouse; conditions: for median survival: once a week, non-treated 67 days
Procedure: Pdx1-Cre, Ink4afl/fl LSL-KrasG12D (KICpdx1) mice were obtained by crossing of the following strains: Pdx1-Cre, Ink4afl/fl, and LSL-KrasG12D mice provided by D. Melton (Harvard Stem Cell Institute, Cambridge, Massachusetts, USA), R. Depinho (Dana-Farber Cancer Institute, Boston, Massachusetts, USA), and T. Jacks (David H. Koch Institute for Integrative Cancer Research, Cambridge, Massachusetts, USA), respectively. PDAC-bearing 5- and 8-week-old mice were treated once a week with vehicle or 1(S) ligand (0.1 mg/injection/mouse) until experimental endpoint mice reaching sacrificing time or mice reaching physiological endpoints (cachexia criteria, limited movement, drinking or feeding of the mice). No exclusion has to be reported in all experiments as no mice reached a criteria of exclusion such as a fight-related wound or the development of ear inflammation.. To study final tumor volume, mice were euthanized at 9 weeks and tumors were weighted and fixed in 4% (wt/vol) formaldehyde for immunochemistry. For survival analyses, mice were euthanized when they developed ethical clinical end points defined by our institutional guidelines and European animal protection law. For all experiments, sample size was predicted following a Mann-Whitney statistical approach involving power calculation of 0.8 with a FDR of 0.05. A minimum number of 7 mice per group was predicted as able to reach significance. Bonferroni post-hoc test was used for multiples test comparison (two variance with time and/or treatment). Experimental technicians were proceeding with injections while personnel related to mice follow-up worked in a blinded approach. All animal care and experimental procedures were performed in agreement with the Animal Ethics Committee of Marseille then the French ministry of research and innovation under the reference Apafis#16998-2018100814458519.

[1] = KICpdx1 mice treated from 5 weeks, end-point at 9 weeks, versus untreated

Compound	CAF-CM-induced SK2 current (SK2 channel)	CAF-CM mediated activation of SK2 (ISK2 current) (SK2 channel; PANC-1 cells exposed overnight to CAF-CM + 1(S) ligand 1 μM, patch-clamp, FIG. 1A)	association of SK2 and AKT (PLA, interactions per cell) (SK2/AKT interaction)	effect on proliferation and viability (Panc-1 cells)	tumor progression (KICpdx1 mice; KICpdx1 mice treated from 5 weeks old, before the onset of PDAC)	median survival (KICpdx1 mice; KICpdx1 mice treated from 5 weeks old, 0.1 mg/injection/mouse, FIG. 1D)	histological examination of pancreas (KICpdx1 mice; KICpdx1 mice treated from 5 weeks, end-point at 9 weeks)	ECM density (trichrome labelling, desmoplasia) (KICpdx1 mice; [1])	number of EMT-reprogramming epithelial cells (Pan-CK/αSMA co-staining) (KICpdx1 mice; [1])	reduction of pancreas weight compared to non-treated (KICpdx1 mice; KICpdx1 mice treated from 5 weeks, end-point at 9 weeks, FIG. 1F)	pancreas weight (KICpdx1 mice; KICpdx1 mice treated from 5 weeks, end-point at 9 weeks, non-treated 1.44 g (±0.42), FIG. 1F)	median survival (KICpdx1 mice; KICpdx1 mice treated from 8 weeks of age (PDAC already developed), FIG. 1H)	metastasis onset (KICpdx1 mice; mouse models of PDAC treated with 1(S))
CCN(CC)CCCCN1c2ccccc2Oc2ccc(Cl)cc21 [DEBC, reference compound]	suppressed	–	–	–	–	–	–	–	–	–	–	–	–
CN(CCCN1C(=O)[C@@H]2Cc3ccccc3CN2C1=O)Cc1ccccc1 [Compound 1(S)]	–	abolished	prevented	does not exhibit any effect	significantly delayed	84 days	almost lack of malignant lesions	lower	lower	69%	0.45 g	77 days	reduced
C#Cc1cccc(Nc2ncnc3cc(OCCOC)c(OCCOC)cc23)c1 [Erlotinib, reference compound]	suppressed	–	–	–	–	–	–	–	–	–	–	–	–
